# Measurements as given in ChEMBL document CHEMBL3217615, “Novel 3,5-bis(arylidiene)-4-piperidone based monocarbonyl analogs of curcumin: anticancer activity evaluation and mode of action study” (2014).
# What was measured:
# Format in all cases: functional
# COLO 205 [1] = assay: Induction of apoptosis in human COLO205 cells assessed as necrotic apoptosis cells level at 10 uM after 24 hrs by Annexin V/propidium iodide staining-based fluorescence microscopy
# COLO 205 [2] = assay: Induction of apoptosis in human COLO205 cells assessed as late apoptosis cells level at 10 uM after 24 hrs by Annexin V/propidium iodide staining-based fluorescence microscopy
# COLO 205 [3] = assay: Induction of apoptosis in human COLO205 cells assessed as early apoptosis cells level at 10 uM after 24 hrs by Annexin V/propidium iodide staining-based fluorescence microscopy
# COLO 205 [4] = assay: Induction of apoptosis in human COLO205 cells assessed as viable cells level at 10 uM after 24 hrs by Annexin V/propidium iodide staining-based fluorescence microscopy
# COLO 205 [5] = assay: Induction of apoptosis in human COLO205 cells assessed as DNA fragmentation at 10 uM
# COLO 205 [6] = assay: Induction of apoptosis in human COLO205 cells assessed as caspase 9 activation at 10 uM by FLICA
# COLO 205 [7] = assay: Induction of apoptosis in human COLO205 cells assessed as caspase 8 activation at 10 uM by FLICA
# COLO 205 [8] = assay: Induction of apoptosis in human COLO205 cells assessed as caspase 3/7 activation at 10 uM by FLICA
# COLO 205 [9] = assay: Induction of apoptosis in human COLO205 cells at 10 uM after 24 hrs by Annexin V/propidium iodide staining-based fluorescence microscopy
structure (smiles),measurement,setting,value
CC[C@@]1(O)C(=O)OCc2c1cc1n(c2=O)Cc2cc3ccccc3nc2-1 [CAMPTOTHECIN],Activity,COLO 205 [1],0%
same,Activity,COLO 205 [2],17%
same,Activity,COLO 205 [3],42%
same,Activity,COLO 205 [4],40%
same,Activity,COLO 205 [5],80.5%
same,Activity,COLO 205 [6],19.5%
same,Activity,COLO 205 [7],23.5%
same,Activity,COLO 205 [8],62%
same,Activity,COLO 205 [9],53%
